In the supplement of paper PMC5762512:

Tests used:
Test in all cases: IC50 cell viability (Alamar Blue, 96 h)
[1] = tested on: PER-536
Method: (§1)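 Cells in log-phase growth were seeded in 96-well plates and treated with drug for 96 h at 37°C using 8-point serial dilutions from 0.0025 to 10 µM. Viability was read by Alamar Blue fluorescence after 6 h and normalised to positive and vehicle (DMSO) controls. IC50 values were fitted in ActivityBase; the value given is the mean of two independent experiments.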

[2] = tested on: HCC2429
Method: as §1

[3] = tested on: 14169
Method: as §1

[4] = tested on: TC797
Method: as §1

[5] = tested on: CAKI-1
Method: as §1

[6] = tested on: PER-624
Method: as §1

[7] = tested on: TY82
Method: as §1

[8] = tested on: PER-704
Method: as §1

[9] = tested on: A549
Method: as §1

[10] = tested on: PER-535
Method: as §1

[11] = tested on: PER-712
Method: as §1

[12] = tested on: HS-27
Method: as §1

[13] = tested on: PER-891
Method: as §1

[14] = tested on: RPMI2650
Method: as §1

[15] = tested on: WI-38
Method: as §1

[16] = tested on: 11060
Method: as §1

[17] = tested on: 10326
Method: as §1

[18] = tested on: PER-403
Method: as §1

[19] = tested on: P896-CL
Method: as §1

[20] = tested on: 8645
Method: as §1

Cc1csc(-c2nnc(Nc3ccc(Oc4ncccc4-c4ccnc(N)n4)cc3)c3ccccc23)c1 [AMG-900]
IC50 cell viability [1]: > 10000 nM
IC50 cell viability [2]: 7.26 nM
IC50 cell viability [3]: 3.94 nM
IC50 cell viability [4]: > 10000 nM
IC50 cell viability [5]: > 10000 nM
IC50 cell viability [6]: > 10000 nM
IC50 cell viability [7]: > 10000 nM
IC50 cell viability [8]: > 10000 nM
IC50 cell viability [9]: 6.42 nM
IC50 cell viability [10]: 112 nM
IC50 cell viability [11]: > 10000 nM
IC50 cell viability [12]: > 10000 nM
IC50 cell viability [13]: > 10000 nM
IC50 cell viability [14]: > 10000 nM
IC50 cell viability [15]: 7360 nM
IC50 cell viability [16]: 98.1 nM
IC50 cell viability [17]: 3.75 nM
IC50 cell viability [18]: < 2.5 nM
IC50 cell viability [19]: 5020 nM
IC50 cell viability [20]: > 10000 nM

COc1cc(Nc2ncc3c(n2)-c2ccc(Cl)cc2C(c2c(F)cccc2OC)=NC3)ccc1C(=O)O [Alisertib]
IC50 cell viability [1]: 1580 nM
IC50 cell viability [2]: 229 nM
IC50 cell viability [3]: 67.8 nM
IC50 cell viability [4]: > 10000 nM
IC50 cell viability [5]: 8100 nM
IC50 cell viability [6]: 873 nM
IC50 cell viability [7]: > 10000 nM
IC50 cell viability [8]: 4880 nM
IC50 cell viability [9]: 249 nM
IC50 cell viability [10]: 37.4 nM
IC50 cell viability [11]: 306 nM
IC50 cell viability [12]: 5390 nM
IC50 cell viability [13]: > 10000 nM
IC50 cell viability [14]: > 10000 nM
IC50 cell viability [15]: 6140 nM
IC50 cell viability [16]: 168 nM
IC50 cell viability [17]: 149 nM
IC50 cell viability [18]: 38.1 nM
IC50 cell viability [19]: 2410 nM
IC50 cell viability [20]: 327 nM

CCN(CCCOc1ccc2c(Nc3cc(CC(=O)Nc4cccc(F)c4)[nH]n3)ncnc2c1)CCOP(=O)(O)O [Barasertib]
IC50 cell viability [1]: > 10000 nM
IC50 cell viability [2]: 20.9 nM
IC50 cell viability [3]: 7.07 nM
IC50 cell viability [4]: > 10000 nM
IC50 cell viability [5]: > 10000 nM
IC50 cell viability [6]: > 10000 nM
IC50 cell viability [7]: > 10000 nM
IC50 cell viability [8]: > 10000 nM
IC50 cell viability [9]: 203 nM
IC50 cell viability [10]: > 10000 nM
IC50 cell viability [11]: > 10000 nM
IC50 cell viability [12]: 1900 nM
IC50 cell viability [13]: > 10000 nM
IC50 cell viability [14]: > 10000 nM
IC50 cell viability [15]: 6910 nM
IC50 cell viability [16]: 37.6 nM
IC50 cell viability [17]: 11.7 nM
IC50 cell viability [18]: 19.4 nM
IC50 cell viability [19]: 5010 nM
IC50 cell viability [20]: 986 nM

COc1cccc2c1C(=O)c1c(O)c3c(c(O)c1C2=O)C[C@@](O)(C(C)=O)C[C@@H]3O[C@H]1C[C@H](N)[C@H](O)[C@H](C)O1 [Daunorubicin]
IC50 cell viability [1]: 339 nM
IC50 cell viability [2]: 51.1 nM
IC50 cell viability [3]: 9.69 nM
IC50 cell viability [4]: 153 nM
IC50 cell viability [5]: 1030 nM
IC50 cell viability [6]: 22 nM
IC50 cell viability [7]: 227 nM
IC50 cell viability [8]: 110 nM
IC50 cell viability [9]: 13.1 nM
IC50 cell viability [10]: 218 nM
IC50 cell viability [11]: 384 nM
IC50 cell viability [12]: 90.1 nM
IC50 cell viability [13]: 475 nM
IC50 cell viability [14]: 285 nM
IC50 cell viability [15]: 87.8 nM
IC50 cell viability [16]: 29.5 nM
IC50 cell viability [17]: 42.1 nM
IC50 cell viability [18]: 14.9 nM
IC50 cell viability [19]: 201 nM
IC50 cell viability [20]: 12.2 nM

C[C@H]1O[C@@H](O[C@H]2[C@@H](O)C[C@H](O[C@H]3[C@@H](O)C[C@H](O[C@H]4CC[C@@]5(C)[C@H](CC[C@@H]6[C@@H]5C[C@@H](O)[C@]5(C)[C@@H](C7=CC(=O)OC7)CC[C@]65O)C4)O[C@@H]3C)O[C@@H]2C)C[C@H](O)[C@@H]1O [Digoxin]
IC50 cell viability [1]: 598 nM
IC50 cell viability [2]: 96.9 nM
IC50 cell viability [3]: 52 nM
IC50 cell viability [4]: 226 nM
IC50 cell viability [5]: 323 nM
IC50 cell viability [6]: 99.7 nM
IC50 cell viability [7]: 83.7 nM
IC50 cell viability [8]: 200 nM
IC50 cell viability [9]: 16.5 nM
IC50 cell viability [10]: 218 nM
IC50 cell viability [11]: 299 nM
IC50 cell viability [12]: 58.9 nM
IC50 cell viability [13]: 103 nM
IC50 cell viability [14]: 97.6 nM
IC50 cell viability [15]: 34 nM
IC50 cell viability [16]: 86.2 nM
IC50 cell viability [17]: 41.5 nM
IC50 cell viability [18]: 57.7 nM
IC50 cell viability [19]: 158 nM
IC50 cell viability [20]: 82.5 nM

CC(=O)O[C@@]12CO[C@@H]1C[C@H](O)[C@@]1(C)C(=O)[C@H](O)C3=C(C)[C@@H](OC(=O)[C@H](O)[C@@H](NC(=O)OC(C)(C)C)c4ccccc4)C[C@@](O)([C@@H](OC(=O)c4ccccc4)[C@H]21)C3(C)C [Docetaxel]
IC50 cell viability [1]: 16.4 nM
IC50 cell viability [2]: < 2.5 nM
IC50 cell viability [3]: < 2.5 nM
IC50 cell viability [4]: 3.88 nM
IC50 cell viability [5]: 5000 nM
IC50 cell viability [6]: < 2.5 nM
IC50 cell viability [7]: 9.64 nM
IC50 cell viability [8]: 4.11 nM
IC50 cell viability [9]: < 2.5 nM
IC50 cell viability [10]: 6.25 nM
IC50 cell viability [11]: 3.2 nM
IC50 cell viability [12]: < 2.5 nM
IC50 cell viability [13]: > 10000 nM
IC50 cell viability [14]: > 10000 nM
IC50 cell viability [15]: 2.82 nM
IC50 cell viability [16]: < 2.5 nM
IC50 cell viability [17]: < 2.5 nM
IC50 cell viability [18]: < 2.5 nM
IC50 cell viability [19]: 3.08 nM
IC50 cell viability [20]: < 2.5 nM

C/C(=C\c1csc(C)n1)[C@@H]1C[C@@H]2O[C@]2(C)CCC[C@H](C)[C@H](O)[C@@H](C)C(=O)C(C)(C)[C@@H](O)CC(=O)O1 [Epothilone B]
IC50 cell viability [1]: 7.59 nM
IC50 cell viability [2]: < 2.5 nM
IC50 cell viability [3]: < 2.5 nM
IC50 cell viability [4]: 3.41 nM
IC50 cell viability [5]: 16.2 nM
IC50 cell viability [6]: < 2.5 nM
IC50 cell viability [7]: 9.79 nM
IC50 cell viability [8]: 3.8 nM
IC50 cell viability [9]: < 2.5 nM
IC50 cell viability [10]: 3.27 nM
IC50 cell viability [11]: < 2.5 nM
IC50 cell viability [12]: < 2.5 nM
IC50 cell viability [13]: 5010 nM
IC50 cell viability [14]: > 10000 nM
IC50 cell viability [15]: < 2.5 nM
IC50 cell viability [16]: < 2.5 nM
IC50 cell viability [17]: < 2.5 nM
IC50 cell viability [18]: < 2.5 nM
IC50 cell viability [19]: 3.22 nM
IC50 cell viability [20]: < 2.5 nM

COc1cc2ncnc(Nc3ccc(F)c(Cl)c3)c2cc1OCCCN1CCOCC1 [Gefitinib]
IC50 cell viability [1]: > 10000 nM
IC50 cell viability [2]: > 10000 nM
IC50 cell viability [3]: 6050 nM
IC50 cell viability [4]: > 10000 nM
IC50 cell viability [5]: > 10000 nM
IC50 cell viability [6]: 2210 nM
IC50 cell viability [7]: > 10000 nM
IC50 cell viability [8]: > 10000 nM
IC50 cell viability [9]: 2740 nM
IC50 cell viability [10]: > 10000 nM
IC50 cell viability [11]: > 10000 nM
IC50 cell viability [12]: 7850 nM
IC50 cell viability [13]: 6540 nM
IC50 cell viability [14]: > 10000 nM
IC50 cell viability [15]: 5190 nM
IC50 cell viability [16]: 5370 nM
IC50 cell viability [17]: 5890 nM
IC50 cell viability [18]: > 10000 nM
IC50 cell viability [19]: 1450 nM
